Assay: Inhibition of human recombinant SAHH at 1000 uM

IC50: 18 µM
SMILES: Nc1ncnc2c1ncn2[C@@H]1CC[C@@H](O)[C@H]1O [(1R,2S,3R)-3-(6-amino-9H-purin-9-yl)cyclopentane-1,2-diol]
